Data on eight molecules can be found in BindingDB's records for doi:10.1016/j.ejmech.2018.07.023 (University of Copenhagen, 2018).

Molecules are shown by their SMILES. *1 amine or outer side, *2 acyl side, *3 side chain or, on linkers, in order; H or OH if unused. Where a SMILES comes first, the peptide text is derived from it. Bridges are numbered along the chain shown (N, C = ends). [ ]: non-standard residue; d: D form. Leu(3R-O(AcLeu(3R-OH))) = CC(=O)N[C@H](C(=O)O[C@H](C(C)C)[C@H](N)C(=O)O)[C@H](O)C(C)C; X1 = CC(C)[C@@H](O[*:3])[C@H](N[*:1])C(=O)[*:2]; NMeT = CN[C@H](C(=O)O)[C@@H](C)O; dPhLac = O=C(O)[C@H](O)Cc1ccccc1; NMeA = CN[C@@H](C)C(=O)O; NMeDha = C=C(NC)C(=O)O

The nature of this test: Inhibition of recombinant rat Gi coupled mGlu2 receptor expressed in CHO cells assessed as suppression of L-glutamate-induced decrease in cAMP level pretreated for 1 hr followed by L-glutamate/forskolin addition and measured after 30 mins by FRET assay.
By IC50 is commonly meant the concentration that gives 50% inhibition. On to `C=C1C(=O)N[C@@H](C)C(=O)N(C)[C@@H](C)C(=O)N[C@@H]([C@H](OC(=O)[C@@H](NC(C)=O)[C@H](O)C(C)C)C(C)C)C(=O)N(C)[C@@H]([C@@H](C)OC)C(=O)O[C@@H](C)[C@H](NC(C)=O)C(=O)O[C@H](Cc2ccccc2)C(=O)N1C`, for which the IC50 was greater than 50 µM.

Take `C=C1C(=O)N[C@@H](C)C(=O)N(C)[C@@H](C)C(=O)N[C@@H]([C@H](OC(=O)[C@@H](NC(=O)CCCCC)[C@H](O)C(C)C)C(C)C)C(=O)N(C)[C@@H]([C@@H](C)OC)C(=O)O[C@H](C)[C@H](NC(C)=O)C(=O)O[C@H](Cc2ccccc2)C(=O)N1C`: the half-maximal inhibitory concentration (IC50) is greater than 50 µM.

In the case of `C=C1C(=O)N[C@@H](C)C(=O)N(C)[C@@H](C)C(=O)N[C@@H]([C@H](OC(=O)[C@@H](NC(C)=O)[C@H](O)C(C)C)C(C)C)C(=O)N(C)[C@@H]([C@@H](C)OC)C(=O)O[C@H](C)[C@H](NC(C)=O)C(=O)O[C@H](CC(C)C)C(=O)N1C`, the IC50 was greater than 100 µM.

As for `C=C1C(=O)N[C@@H](C)C(=O)N(C)[C@@H](C)C(=O)N[C@@H]([C@H](OC(=O)[C@@H](NC(C)=O)[C@H](O)C(C)C)C(C)C)C(=O)N(C)[C@@H]([C@@H](C)OC)C(=O)OC[C@H](NC(C)=O)C(=O)O[C@H](Cc2ccccc2)C(=O)N1C`, the IC50 is greater than 50 µM.

Turning to `C=C1C(=O)N[C@@H](C)C(=O)N(C)[C@@H](C)C(=O)N[C@@H]([C@H](OC(=O)[C@@H](NC(=O)c2ccccc2)[C@H](O)C(C)C)C(C)C)C(=O)N(C)[C@@H]([C@@H](C)OC)C(=O)O[C@H](C)[C@H](NC(C)=O)C(=O)O[C@H](Cc2ccccc2)C(=O)N1C`, the IC50 was greater than 100 µM.

`C=C1C(=O)N[C@@H](C)C(=O)N(C)[C@@H](C)C(=O)N[C@@H]([C@H](OC(=O)[C@@H](NC(C)=O)[C@H](O)C(C)C)C(C)C)C(=O)N(C)[C@@H]([C@@H](C)OC)C(=O)O[C@H](C)[C@H](NC(C)=O)C(=O)O[C@H](Cc2ccccc2)C(=O)N1C`: the IC50 is greater than 100 µM.

As for `CO[C@H](C)[C@H]1C(=O)O[C@H](C)[C@H](NC(C)=O)C(=O)O[C@H](CC(C)C)C(=O)N(C)[C@H](CO)C(=O)N[C@@H](C)C(=O)N(C)[C@@H](C)C(=O)N[C@@H]([C@H](OC(=O)[C@@H](NC(C)=O)[C@H](O)C(C)C)C(C)C)C(=O)N1C`, the 50% inhibitory concentration (IC50) was greater than 100 µM.

For the molecule `C=C1C(=O)N[C@@H](C)C(=O)N(C)[C@@H](C)C(=O)N[C@@H]([C@H](OC(=O)[C@@H](NC(C)=O)[C@H](O)C(C)C)C(C)C)C(=O)N(C)[C@@H]([C@@H](C)OC)C(=O)O[C@H](C(C)C)[C@H](NC(C)=O)C(=O)O[C@H](Cc2ccccc2)C(=O)N1C` (Ac-[X1][dPhLac][NMeDha]A[NMeA][Leu(3R-O(AcLeu(3R-OH)))][NMeT](Me); ester 1-C), the IC50 is greater than 50 µM.
